Converted amounts (≈) assume the structure as drawn. Where two headings read alike, the source gives them in different places.
How the values were obtained:
S. aureus GC 1131 = assay: MIC, broth microdilution; details: Staphylococcus aureus
E. coli GC 2272 = assay: MIC, broth microdilution; details: Escherichia coli
E. faecalis GC 2242 = assay: MIC, broth microdilution; details: Enterococcus faecalis
Staph. aureus Smith = assay: In vivo activity (oral, iv; ED50) against Staph. aureus Smith in mice
E. coli GC 4559 = assay: MIC, broth microdilution; details: Escherichia coli
E. coli GC 2235 = assay: MIC, broth microdilution; details: Escherichia coli
S. pneumoniae* GC 4465 = assay: MIC, broth microdilution; details: Streptococcus pneumoniae
S. aureus GC 6467 = assay: MIC, broth microdilution; details: Staphylococcus aureus
S. pneumoniae+ GC 4465 = assay: MIC, broth microdilution; details: Streptococcus pneumoniae
S. typhimurium GC 2172 = assay: MIC, broth microdilution; details: Salmonella enterica, TYPHIMURIUM
S. agalactiae GC 4564 = assay: MIC, broth microdilution; details: Streptococcus agalactiae
S. epidermidis GC 4935 = assay: MIC, broth microdilution; details: Staphylococcus epidermidis
E. coli GC 6465 = assay: MIC, broth microdilution; details: Escherichia coli
E. coli GC 4560 = assay: MIC, broth microdilution; details: Escherichia coli
S. aureus GC 1079 = assay: MIC, broth microdilution; details: Staphylococcus aureus
E. coli GC 1073 = assay: MIC, broth microdilution; details: Escherichia coli
E. faecalis GC 4555 = assay: MIC, broth microdilution; details: Enterococcus faecalis
E. faecalis GC 2267 = assay: MIC, broth microdilution; details: Enterococcus faecalis
c. albicans GC 3066 = assay: MIC, broth microdilution
S. aureus GC 4536 = assay: MIC, broth microdilution; details: Staphylococcus aureus
[1] = read-out: MINIMAL INHIBITORY CONCENTRATION MIC, pre-incubated in Mouse Serum
[2] = read-out: MINIMAL INHIBITORY CONCENTRATION MIC, pre-incubated in Water

- MIC (S. aureus GC 1131; GC1131, read-out: MINIMAL INHIBITORY CONCENTRATION MIC, pre-incubated in Mouse Serum): 1 µg/mL (≈ 1.21 µM)
- MIC (S. aureus GC 1131; GC1131, read-out: MINIMAL INHIBITORY CONCENTRATION MIC, pre-incubated in Water): 2 µg/mL (≈ 2.42 µM)
- MIC (E. coli GC 2272; GC2272, read-out: MINIMAL INHIBITORY CONCENTRATION MIC, pre-incubated in Mouse Serum): 1 µg/mL (≈ 1.21 µM)
- MIC (E. coli GC 2272; GC2272, read-out: MINIMAL INHIBITORY CONCENTRATION MIC, pre-incubated in Water): > 64 µg/mL
- MIC (E. faecalis GC 2242; GC2242, read-out: MINIMAL INHIBITORY CONCENTRATION MIC, pre-incubated in Mouse Serum): 2 µg/mL (≈ 2.42 µM)
- MIC (E. faecalis GC 2242; GC2242, read-out: MINIMAL INHIBITORY CONCENTRATION MIC, pre-incubated in Water): 4 µg/mL (≈ 4.84 µM)
- MIC (E. coli GC 4559; GC4559, read-out: MINIMAL INHIBITORY CONCENTRATION MIC, pre-incubated in Mouse Serum): 1 µg/mL (≈ 1.21 µM)
- MIC (E. coli GC 4559; GC4559, read-out: MINIMAL INHIBITORY CONCENTRATION MIC, pre-incubated in Water): > 64 µg/mL
- MIC (E. coli GC 2235; GC2235, read-out: MINIMAL INHIBITORY CONCENTRATION MIC, pre-incubated in Mouse Serum): 0.5 µg/mL (≈ 0.605 µM)
- MIC (E. coli GC 2235; GC2235, read-out: MINIMAL INHIBITORY CONCENTRATION MIC, pre-incubated in Water): > 64 µg/mL
- MIC (S. pneumoniae* GC 4465; [1]): < 0.06 µg/mL
- MIC (S. pneumoniae* GC 4465; [2]): < 0.06 µg/mL
- MIC (S. aureus GC 6467; GC6467, read-out: MINIMAL INHIBITORY CONCENTRATION MIC, pre-incubated in Mouse Serum): 4 µg/mL (≈ 4.84 µM)
- MIC (S. aureus GC 6467; GC6467, read-out: MINIMAL INHIBITORY CONCENTRATION MIC, pre-incubated in Water): > 64 µg/mL
- MIC (S. pneumoniae+ GC 4465; [1]): 2 µg/mL (≈ 2.42 µM)
- MIC (S. pneumoniae+ GC 4465; [2]): 1 µg/mL (≈ 1.21 µM)
- MIC (S. typhimurium GC 2172; [1]): 8 µg/mL (≈ 9.69 µM)
- MIC (S. typhimurium GC 2172; [2]): > 64 µg/mL
- MIC (S. agalactiae GC 4564; GC4564, read-out: MINIMAL INHIBITORY CONCENTRATION MIC, pre-incubated in Mouse Serum): 0.5 µg/mL (≈ 0.605 µM)
- MIC (S. agalactiae GC 4564; GC4564, read-out: MINIMAL INHIBITORY CONCENTRATION MIC, pre-incubated in Water): 8 µg/mL (≈ 9.69 µM)
- MIC (S. epidermidis GC 4935; GC4935, read-out: MINIMAL INHIBITORY CONCENTRATION MIC, pre-incubated in Mouse Serum): 2 µg/mL (≈ 2.42 µM)
- MIC (S. epidermidis GC 4935; GC4935, read-out: MINIMAL INHIBITORY CONCENTRATION MIC, pre-incubated in Water): 16 µg/mL (≈ 19.4 µM)
- MIC (E. coli GC 6465; GC6465, read-out: MINIMAL INHIBITORY CONCENTRATION MIC, pre-incubated in Mouse Serum): 8 µg/mL (≈ 9.69 µM)
- MIC (E. coli GC 6465; GC6465, read-out: MINIMAL INHIBITORY CONCENTRATION MIC, pre-incubated in Water): > 64 µg/mL
- MIC (E. coli GC 4560; GC4560, read-out: MINIMAL INHIBITORY CONCENTRATION MIC, pre-incubated in Mouse Serum): 0.25 µg/mL (≈ 0.303 µM)
- MIC (E. coli GC 4560; GC4560, read-out: MINIMAL INHIBITORY CONCENTRATION MIC, pre-incubated in Water): 64 µg/mL (≈ 77.5 µM)
- MIC (S. aureus GC 1079; GC1079, read-out: MINIMAL INHIBITORY CONCENTRATION MIC, pre-incubated in Mouse Serum): 2 µg/mL (≈ 2.42 µM)
- MIC (S. aureus GC 1079; GC1079, read-out: MINIMAL INHIBITORY CONCENTRATION MIC, pre-incubated in Water): 64 µg/mL (≈ 77.5 µM)
- MIC (E. coli GC 1073; GC1073, read-out: MINIMAL INHIBITORY CONCENTRATION MIC, pre-incubated in Mouse Serum): 1 µg/mL (≈ 1.21 µM)
- MIC (E. coli GC 1073; GC1073, read-out: MINIMAL INHIBITORY CONCENTRATION MIC, pre-incubated in Water): > 64 µg/mL
- MIC (E. faecalis GC 4555; GC4555, read-out: MINIMAL INHIBITORY CONCENTRATION MIC, pre-incubated in Mouse Serum): 1 µg/mL (≈ 1.21 µM)
- MIC (E. faecalis GC 4555; GC4555, read-out: MINIMAL INHIBITORY CONCENTRATION MIC, pre-incubated in Water): 64 µg/mL (≈ 77.5 µM)
- MIC (E. faecalis GC 2267; GC2267, read-out: MINIMAL INHIBITORY CONCENTRATION MIC, pre-incubated in Mouse Serum): 4 µg/mL (≈ 4.84 µM)
- MIC (E. faecalis GC 2267; GC2267, read-out: MINIMAL INHIBITORY CONCENTRATION MIC, pre-incubated in Water): 64 µg/mL (≈ 77.5 µM)
- MIC (c. albicans GC 3066; Candida albicans, GC3066, read-out: MINIMAL INHIBITORY CONCENTRATION MIC): > 64 µg/mL
- MINIMAL INHIBITORY CONCENTRATION MIC (c. albicans GC 3066; pre-incubated in Water): >64 UG/ML
- MIC (S. aureus GC 4536; GC4536, read-out: MINIMAL INHIBITORY CONCENTRATION MIC, pre-incubated in Mouse Serum): 1 µg/mL (≈ 1.21 µM)
- MIC (S. aureus GC 4536; GC4536, read-out: MINIMAL INHIBITORY CONCENTRATION MIC, pre-incubated in Water): 4 µg/mL (≈ 4.84 µM)
SMILES: CCCN(CC(=O)Nc1cc(N(C)C)c2c(c1O)C(=O)C1=C(O)[C@]3(O)C(=O)C(C(N)=O)=C(O)[C@@H](N(C)C)[C@@H]3C[C@@H]1C2)C(=O)OCOC(=O)c1ccc(-c2ccccc2)cc1 [Example 24, ({[(2-{[(5aR,6aS,7S,10aS)-9-(aminocarbonyl)-4,7-bis(dimethylamino)-1,8,10a,11-tetrahydroxy-10,12-dioxo-5,5a,6,6a,7,10,10a,12-octahydrotetracen-2-yl]amino}-2-oxoethyl)(propyl)amino]carbonyl}oxy)methyl 1,1′-biphenyl-4-carboxylate]
- ED50 (Staph. aureus Smith; Staphylococcus aureus, in Mus musculus, po, read-out: ED50 Staph Smith SOD): 27 mg/kg
- ED50 (Staph. aureus Smith; iv, read-out: ED50 Staph Smith SIV): 0.59 mg/kg

Reference: patent publication US20070049564A1 (Wyeth, priority 2005, published 2007)
